The subject of data set [1] is HEK293 cells. As to the kind of experiment: HEK293 cytotoxicity, CellTiter-Glo, 48 h. To be noted: Homo sapiens, HEK293, read-out: HEK293 inhibition (%).
The nature of data set [2]: HEK293 cytotoxicity, CellTiter-Glo, 48 h. Conditions: human, HEK293 cells.
Data set [3] deals with HepG2 cells. Put plainly: HepG2 cytotoxicity, CellTiter-Glo, 48 h. Conditions: Homo sapiens, HepG2, read-out: HepG2 inhibition (%).
Data set [4] is described as follows: HepG2 cytotoxicity, CellTiter-Glo, 48 h. To be noted: human, HepG2 cells.
In a further data set the test system is hCatL. Conditions: E-64, from ref. (number not given); cited from earlier work.
Data set [5] deals with T. brucei cathepsin L-like protease (TbrCATL) (Trypanosoma brucei rhodesiense, UniProt Q95PM0). As to the kind of experiment: TbrCATL inhibition assay, Z-FR-AMC substrate. The class given is biochemical. Conditions: for SI TbrCATL: IC50 hCatL/IC50 TbrCATL; for TbrCATL inhibition (%): at 10 μM; for inhibition at 10 µM: read-out: TbrCATL inhibition (%), at 10 μM; for IC50: IC50 TbrCATL (nM), mean ± SD, two experiments in triplicate (n = 6). On the procedure: (§1) All experiments were performed in a 384-well black microplate, using a Synergy HTX (Biotek) plate reader at 25 °C with absorption/emission wavelengths of 360/460 nm. Assays were performed in triplicate wells and DMSO was used as a vehicle control. Enzyme activity was measured and normalized to DMSO controls, and the inhibitor E-64 (10 μM) was used as a positive control for all assays. Experiments were performed in triplicate, with at least two independent assays (n = 6 data points). IC50 values were determined through nonlinear regression. The data obtained were analyzed using GraphPad Prism 9.0 (GraphPad Software, La Jolla, California, US).
The screening assay was performed using 0.5 nM of TbrCATL diluted in 0.1 M sodium acetate, 1 mM dithiothreitol (DTT), and 0.01% Triton X-100, pH 5.5. TbrCATL was expressed and purified as described. Enzyme the compound (10 μM), were incubated for 10 min at room temperature. Then the substrate, Z-Phe-Arg-amidomethylcoumarin (Z-FR-AMC; Sigma-Aldrich, C9521), was added (30 μL diluted in the same assay buffer) to yield a final concentration of 2.5 μM and the assay allowed to proceed for 10 min. […] For those compounds inhibiting enzyme activity by >85%, DR assays were performed over 15 2-fold serial dilutions starting at 0.5 or 20 μM.

The subject of a further data set is TbrCATL. To be noted: cited from earlier work.
The test system of data set [6] is T. brucei brucei Lister 427. As to the kind of experiment: T. b. brucei Lister 427 bloodstream-form growth inhibition, SYBR Green viability assay, 72 h. Type of data set: cell-based, Trypanosoma brucei brucei. To be noted: for EC50: Trypanosoma brucei, three independent experiments in duplicate (n = 6) ± SD, read-out: EC50 T. brucei; for T. brucei inhibition (%): growth inhibition at 10 µM, ± SD.

Another data set has as its system T. cruzi CAI/72. To be noted: cited from earlier work.
Data set [7] in a line: in vitro. Conditions: human, CC50 HepG2 (μM).
Data set [8] in a line: in vitro. Conditions: human, CC50 HEK293 (μM).
Data set [9] addresses T1, human cathepsin L (hCatL) (Homo sapiens, UniProt P07711).
T1 construct: purchased R&D Systems 952-CY
Put plainly: hCatL inhibition assay, Z-FR-AMC substrate. The class given is biochemical. Conditions: mean ± SD, two experiments in triplicate (n = 6). On the procedure: as §1
Recombinant hCatL was purchased from R&D Systems (952-CY) and activated according to the manufacturers protocol. This enzyme, hCatL, is used to test compounds’ selectivity because it is the human homologue of TbrCATL. The assay was modified from, using 25 pM of the enzyme diluted in 40 mM sodium acetate, 5 mM DTT, 100 mM NaCl, 1 mM EDTA and 0.01% Triton X-100, pH 5.5. Enzyme and compound (10 μM), were incubated for 30 min at room temperature. Then Z-FR-AMC was added (30 μL diluted in the same assay buffer) to yield a final concentration of 25 μM and the assay allowed to proceed for 10 min. DR assays were performed over 15 2-fold serial dilutions starting at 0.5 or 20 μM.

Data set [10] can be described thus: DPPH radical scavenging (antioxidant) assay. Conditions: after 2 h, mean ± SEM.
The next data set deals with C2C12 cells. To be noted: read-out: Toxicity CC50 C2C12 cells; cited from earlier work.
Another data set relates to cruzain (Cz). Conditions: cited from earlier work.
For data set [11] the following is noted: pharmacokinetic study; ref previous work; cited from earlier work.
Data set [12] concerns HEK293 cells. Conditions: human.
In data set [13] the test system is HepG2 cells. To be noted: human.

Where “and” joins values, the source holds several entries; their conditions need not be identical. Equal entries are not always repeated.

T1 sequence (P07711 114-333): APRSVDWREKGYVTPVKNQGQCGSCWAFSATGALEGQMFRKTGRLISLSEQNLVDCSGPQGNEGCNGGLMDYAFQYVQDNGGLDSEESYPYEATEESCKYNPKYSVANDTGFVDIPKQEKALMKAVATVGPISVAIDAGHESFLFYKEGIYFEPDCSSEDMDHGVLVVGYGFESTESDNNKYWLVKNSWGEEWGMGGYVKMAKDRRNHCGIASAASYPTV
Chain of T. brucei cathepsin L-like protease (TbrCATL) (Q95PM0 1-450): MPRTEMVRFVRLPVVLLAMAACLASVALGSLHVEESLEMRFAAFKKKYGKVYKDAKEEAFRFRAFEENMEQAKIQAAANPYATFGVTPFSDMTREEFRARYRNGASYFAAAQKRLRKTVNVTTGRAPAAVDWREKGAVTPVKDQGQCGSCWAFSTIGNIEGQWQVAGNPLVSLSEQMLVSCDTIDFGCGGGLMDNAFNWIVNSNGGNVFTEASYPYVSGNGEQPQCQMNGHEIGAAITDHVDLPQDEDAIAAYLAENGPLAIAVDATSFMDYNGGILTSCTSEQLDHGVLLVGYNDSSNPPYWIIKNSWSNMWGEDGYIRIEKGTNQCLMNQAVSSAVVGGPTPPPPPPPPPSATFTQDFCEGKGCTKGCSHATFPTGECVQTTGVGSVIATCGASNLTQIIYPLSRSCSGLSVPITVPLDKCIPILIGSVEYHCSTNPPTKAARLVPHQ

As for `CC(C)C[C@H](NC(=O)[C@H](Cc1ccccc1)NC(=O)c1cnccn1)B(O)O` [Bortezomib, reference compound], the inhibition at 10 µM stood at 100 ± 2% with HEK293 cells [1] and 100 ± 1% in the data set on HepG2 cells [3]. The CC50 at 48 h in data set [2] was 15 ± 2 nM; in data set [4], 15 ± 3 nM.

Consider `CC(C)C[C@H](NC(=O)[C@H]1O[C@@H]1C(=O)O)C(=O)NCCCCN=C(N)N` [Compound E-64, E-64], for which the half-inhibitory concentration (IC50) is 30 ± 4 nM in the data set with hCatL and 3.1 nM with TbrCATL. The “SI TbrCATL” value in data set [5] is on record as 10.

With `C/C(=N\Nc1nc(C)c[se]1)c1cccc([N+](=O)[O-])c1` [SeC5], the concentration for a half-maximal effect (EC50) is 10.5 ± 1.02 µM in data set [6] and 310 ± 180 nM in the data set with T. cruzi CAI/72. The “T. brucei inhibition (%)” value in data set [6] (10 µM) is 100 ± 2%; in [6] (listed as Se C5, 10 µM) it was over 70%. Moreover, the values for the CC50 in “in vitro [7]”, in “in vitro [8]” and in the data set on C2C12 cells were 11.3 ± 0.97 µM, 9 ± 1.36 µM and over 10 µM, respectively. The IC50 was 175 ± 43.7 nM in [9] and 8.99 ± 5.56 nM in the data set with cruzain (Cz). For the same compound, the results for the inhibition at 10 µM (in the data set with HEK293 cells [1]; in the data set on HepG2 cells [3]; in data set [5]) were 81 ± 7%, 77 ± 6% and over 85%, respectively. The “SI TbrCATL” value in data set [5] stood at 25. The “TbrCATL inhibition (%)” value in data set [5] is reported as 98.02%. The figures for the “% inhibited DPPH” value in [10] (0.015 mg/ml), in [10] (0.03 mg/ml) and in [10] (0.06 mg/ml) were 77.33 ± 0.88%, 78.00 ± 1.73% and 78.33 ± 1.76%, respectively. Further, the oral bioavailability result in [11] is recorded as “favorable oral bioavailability”.

Regarding `C/C(=N\NC(N)=[Se])c1ccc(Br)cc1` [SeO3], the EC50 was 0.47 ± 0.02 µM in data set [6] and 770 ± 170 nM with T. cruzi CAI/72. Besides, the “T. brucei inhibition (%)” value in data set [6] (10 µM) was 100 ± 2%; in data set [6] (listed as Se O3, 10 µM), over 70%. The CC50 in “in vitro [7]” is 2.82 µM; in the data set “in vitro [8]” it was 2.7 µM; with HEK293 cells [12] it was 2820 ± 110 nM; in the data set on HepG2 cells [13], 2700 ± 160 nM; in the data set on C2C12 cells, over 10 µM. Besides, the 50% inhibitory concentration (IC50) in data set [9] was 9.87 ± 0.63 nM; in data set [5], 9.87 nM and 1.22 nM; in the data set on cruzain (Cz), 14.3 ± 3.57 nM. For the same compound, the results for the inhibition at 10 µM (in the data set with HEK293 cells [1]; in the data set on HepG2 cells [3]; in data set [5]) were 100%, 71 ± 15% and over 85%, respectively. Further, in data set [5], the “SI TbrCATL” value amounted to 8. Besides, in data set [5], the “TbrCATL inhibition (%)” value is reported as 99.15%. The “% inhibited DPPH” value in data set [10] (0.015 mg/ml) was 23.00 ± 13.43%; in data set [10] (0.03 mg/ml), 75.00 ± 2.65%; in data set [10] (0.06 mg/ml), 77.67 ± 1.45%.

Take `C/C(=N\NC(N)=[Se])c1cccc([N+](=O)[O-])c1` [SeO5]: the 50% effective concentration (EC50) in data set [6] was determined as 5.83 ± 0.72 µM. The “T. brucei inhibition (%)” value in data set [6] (10 µM) is on record as 100 ± 1%; in [6] (listed as Se O5, 10 µM) it was over 70%. Besides, the CC50 was 5.54 ± 1.47 µM in “in vitro [7]”, 2.29 ± 0.26 µM in “in vitro [8]” and over 10 µM with C2C12 cells. Moreover, the IC50 was 0.51 ± 0.08 nM in data set [9]; 0.51 nM and 0.3 nM in [5]; 0.91 ± 0.18 nM with cruzain (Cz). Further, the inhibition at 10 µM in the data set on HEK293 cells [1] was 100%; with HepG2 cells [3], 85%; in data set [5], over 85%. Further, the “SI TbrCATL” value in [5] was 2. For the same compound, the “TbrCATL inhibition (%)” value in data set [5] is recorded as 101.47%. Moreover, the “% inhibited DPPH” value in [10] (0.015 mg/ml) is on record as 22.00 ± 17.67%; in [10] (0.03 mg/ml), 63.33 ± 6.89%; in data set [10] (0.06 mg/ml), 75.67 ± 1.67%.

These data come from publication PMC12177781, “Chalcogen Derivatives for the Treatment of African Trypanosomiasis: Biological Evaluation of Thio- and Seleno-Semicarbazones and Their Azole Derivatives” (ACS Omega, 2025).
